Patent US11160837B2, “Megamonas funiformis and applications thereof” (BGI SHENZHEN, priority 2017, dated 2021)

System: AF24-28AC
Assay: Antibiotic sensitivity of AF24-28AC by the drug sensitive paper method
Assay type: cell-based, Megamonas funiformis
Conditions: for Resistance / sensitivity of AF24-28AC to the antibiotic: drug sensitive paper method, result in words
Protocol: The sensitivity of AF24-28AC to 20 common antibiotics was tested by the drug sensitive paper method. 100 μl of AF24-28AC bacterial solution cultured to the logarithmic phase was spread plated. Antibiotic susceptibility papers (purchased from Hangzhou Microbial Reagent Co. LTD.) were affixed on the medium surface of plates, cultured at 37° C. for 48 hours, after which the size of inhibition zone was measured.

Row | Molecule | Diameter of inhibition zone (antibiotic susceptibility papers on plates spread with AF24-28AC, 37° C., 48 hours) [cm] | Resistance / sensitivity of AF24-28AC to the antibiotic
1 | CN(C)[C@@H]1C(=O)C(C(N)=O)=C(O)[C@@]2(O)C(=O)C3=C(O)c4c(O)cccc4[C@@](C)(O)[C@H]3C[C@@H]12 [Acheomycin] | 4.2 | –
2 | CCN1CCN(C(=O)N[C@@H](C(=O)N[C@@H]2C(=O)N3C(C(=O)O)=C(CSc4nnnn4C)CS[C@H]23)c2ccc(O)cc2)C(=O)C1=O [Cefoperazone] | – | resistant
3 | Cc1onc(-c2ccccc2)c1C(=O)N[C@@H]1C(=O)N2[C@@H]1SC(C)(C)[C@@H]2C(=O)O [Oxacillin] | – | resistant
4 | Penicillin | – | resistant
